Literature values as cited in patent publication US6541263B2, “Determination of corticosteroids in human plasma using micromass LC/MS/MS” (Euro-Celtique, S.A. Luxembourg, priority 2001, dated 2003).

System: eosinophils
Conditions: IL-5-mediated survival

## C[C@]12CCC(=O)C=C1CC[C@@H]1[C@@H]2[C@@H](O)C[C@@]2(C)[C@H]1CC[C@]2(O)C(=O)CO [hydrocortisone]
  inhibition of IL-5-mediated eosinophil survival: dose-dependent inhibition
